The values that follow are results of earlier work, collected in patent US20030181371A1, “Compositions and methods of using collajolie” (Angiotech Pharmaceuticals, Inc., priority 2001, published 2003).

Assay in data set [1]: not given
The source holds these as a separate data set.

With `CN(C)[C@@H]1C(O)=C(C(N)=O)C(=O)[C@@]2(O)C(O)=C3C(=O)c4c(O)cccc4[C@@](C)(O)C3C[C@@H]12` (stereo in doubt) [tetracycline, 4-(dimethylamino)-1,4,4a,5,5a,6,11,12a-octahydro-3,6,10,12,12a-pentahydroxy-6-methyl-1,11-dioxo-2-naphthacenecarboxamide], the “well tolerated daily dosage” value is 1000 mg.

Regarding `CNC(=O)[C@H](Cc1ccccc1)NC(=O)[C@H](CC(C)C)[C@H](CSc1cccs1)C(=O)NO` [Batimistat], the solubility result in data set [1] is given as “highly insoluble”.

With `CNC(=O)[C@@H](NC(=O)[C@H](CC(C)C)[C@H](O)C(=O)NO)C(C)(C)C` [Marimistat], for the setting “single daily dose”, the “established well tolerated single daily dose” value is on record as 50 mg. `C[C@H]1c2cccc(O)c2C(=O)C2=C(O)[C@]3(O)C(=O)C(C(N)=O)=C(O)[C@@H](N(C)C)[C@@H]3[C@@H](O)[C@@H]21` [doxycycline, α-6-deoxy-5-hydroxy-tetracycline]: the “well tolerated daily dosage” value is recorded as 100 mg. As to `CN(C)c1ccc(O)c2c1C[C@H]1C[C@H]3[C@H](N(C)C)C(O)=C(C(N)=O)C(=O)[C@@]3(O)C(O)=C1C2=O` [minocycline, 7-dimethylamino-6-dimethyl-6-deoxytetracycline], the “well tolerated daily dosage” value is recorded as 200 mg.
